Values joined by “and” are separate entries in the source; they are usually repeats but may differ in a detail not shown here. Equal values may be shown once. Where a name gives a salt, the structure may show the parent alone.
Columns and labels:
[1] = tested on: C57Bl/6 mice; experiment: Conditioned place aversion testing; type: in vivo
Experimental: The apparatus used consisted of a box with black interior and dim lighting and a box with white interior and bright lighting connected by a smaller gray “neutral” box, and procedures were followed as described (Skoubis et al., 2001; Weitemier and Murphy, 2009). Mice that had undergone 6 weeks of daily UV exposure or mock exposure were tested for baseline place preferences prior to conditioning (10-minute testing time per mouse). Over the following 4 days, conditioning took place in which mice were either conditioned with naloxone (10 mg/kg ip injection) or saline (ip injection) in the black box, and all animals were conditioned with saline (ip injection) in the white box. Conditioning time in each box was 30 minutes following injection. For each animal there were four hours between conditioning in one box and conditioning in the other box. On the day following the final day of conditioning, place preferences were again tested (post-conditioning, 10-minute testing time per mouse).
Because the magnitude of the measured withdrawal symptoms, while significant, was smaller than that commonly observed with exogenously administered opioids (Broseta et al., 2002), we wished to determine whether these withdrawal signs would be sufficient to elicit alterations in pro-active/operant behavioral choices. We utilized a conditioned place aversion assay (Skoubis et al., 2001; Weitemier and Murphy, 2009) to test whether a specific environment, paired with naloxone administration during conditioning, would be avoided in favor of a different environment paired with a neutral stimulus (saline) during conditioning in chronically UV-irradiated animals. Due to the kinetics of the UV response we chose to use naloxone as it allowed an acute effect of limited duration. Naloxone induces conditioned place aversion in exogenous opioid-dependent mice (Glass et al., 2008; Kenny et al., 2006). Following conditioning, mice were permitted to move freely between the two environments and changes in place preference were measured, in the absence of additional naloxone or saline administration. […]

[2] = tested on: K14-e/e and e/e mice; experiment: Naloxone-precipitated symptoms of opiate withdrawal in forskolin plus rolipram treated mice; type: in vivo; details: individual forskolin plus rolipram treated mice, naloxone 2 mg/kg; for Rearing: 25 min; for Jumping: events in 25 min; for Diarrhea: fecal pellets at 25 min; for Paw Tremor / Teeth Chatter / Wet Dog Shake / oming: occurrence per 15 sec interval over 25 min
Experimental: Female mice were treated with 40 μL of 20%-Forskolin extract daily and 40 μL of rolipram (Sigma) 20 μM in DMSO or vehicle control. Basal blood samples were collected at the beginning of each experiment. After treatment started, blood samples were collected once a week. After 4 weeks of continuous exposure to forskolin and rolipram or vehicle control, mice were injected with saline or naloxone and symptoms of opiate withdrawal were measured for 25 min post injection. Naloxone (St. Luis, Mo.) was diluted in saline at […] and was administrated to mice ˜200 μL, depending on the mass of each mouse (2 mg/kg). Symptoms assigned were wet dog shake (WDS), paw tremor, jumping, bouts of grooming, teeth chatter (TC), rearing and diarrhea. The occurrence in each 15 sec interval of WDS, paw tremor, bouts of grooming and teeth chatter (TC) was used to quantify these parameters. The number of fecal pellets and the individual jumping events at the end of 25 min were quantified for these two factors.
Finally, the functional significance of systemic β-endorphin elevations upon cAMP activation was tested by carrying out behavioral studies on forskolin plus rolipram treated mice.

C=CCN1CC[C@]23c4c5ccc(O)c4O[C@H]2C(=O)CC[C@@]3(O)[C@H]1C5 [naloxone, naloxone hydrochloride]
conditioned place aversion ([1]; 10 mg/kg ip conditioning in the black box, chronically UV-irradiated mice): sufficient to induce conditioned place aversion | conditioned place aversion ([1]; 10 mg/kg ip conditioning in the black box, mock-treated (non-UV irradiated) control mice): had no effect on mock-treated (non-UV irradiated) control mice | conditioned place aversion ([1]; K14cre control mice vs p53fl/fl K14cre mice after 3 weeks of daily UV exposure): significant naloxone conditioned place aversion | Rearing ([2]; K14:e/e): 0 | Jumping ([2]; K14:e/e): 0 | Diarrhea ([2]; K14:e/e, hydrochloride): 0 and 1 | Paw Tremor ([2]; K14:e/e, hydrochloride): 0 and 2 | Teeth Chatter ([2]; K14:e/e, hydrochloride): 80 and 107 | Wet Dog Shake ([2]; K14:e/e, hydrochloride): 145 and 135 | oming ([2]; K14:e/e, hydrochloride): 17 and 2 | Rearing ([2]; e/e, hydrochloride): 0 and 18 | Jumping ([2]; e/e): 0 | Diarrhea ([2]; e/e, hydrochloride): 1 and 2 | Paw Tremor ([2]; e/e, hydrochloride): 4 and 34 | Teeth Chatter ([2]; e/e, hydrochloride): 116 and 75 | Wet Dog Shake ([2]; e/e, hydrochloride): 120 and 76 | oming ([2]; e/e, hydrochloride): 13 and 19

Reference: patent US20190083455A1, “METHODS AND COMPOSITIONS FOR THE MODULATION OF BETA-ENDORPHIN LEVELS” (The General Hospital Corporation, priority 2014, published 2019)
